Experimental data taken from patent publication US20040248775A1, “Methods for screening inhibitors of apoptosis” (Wyeth, priority 2003, published 2004).

Biological target: T1, His6-NALP1 NBS mutant (G339E, K340A) (Homo sapiens, UniProt Q9C000, G339E/K340A)
T1 construct: made in house; host or cells: COS-7 cells, transient transfection, Ni-NTA purification
T1 sequence (Q9C000 1-1473 G339E/K340A): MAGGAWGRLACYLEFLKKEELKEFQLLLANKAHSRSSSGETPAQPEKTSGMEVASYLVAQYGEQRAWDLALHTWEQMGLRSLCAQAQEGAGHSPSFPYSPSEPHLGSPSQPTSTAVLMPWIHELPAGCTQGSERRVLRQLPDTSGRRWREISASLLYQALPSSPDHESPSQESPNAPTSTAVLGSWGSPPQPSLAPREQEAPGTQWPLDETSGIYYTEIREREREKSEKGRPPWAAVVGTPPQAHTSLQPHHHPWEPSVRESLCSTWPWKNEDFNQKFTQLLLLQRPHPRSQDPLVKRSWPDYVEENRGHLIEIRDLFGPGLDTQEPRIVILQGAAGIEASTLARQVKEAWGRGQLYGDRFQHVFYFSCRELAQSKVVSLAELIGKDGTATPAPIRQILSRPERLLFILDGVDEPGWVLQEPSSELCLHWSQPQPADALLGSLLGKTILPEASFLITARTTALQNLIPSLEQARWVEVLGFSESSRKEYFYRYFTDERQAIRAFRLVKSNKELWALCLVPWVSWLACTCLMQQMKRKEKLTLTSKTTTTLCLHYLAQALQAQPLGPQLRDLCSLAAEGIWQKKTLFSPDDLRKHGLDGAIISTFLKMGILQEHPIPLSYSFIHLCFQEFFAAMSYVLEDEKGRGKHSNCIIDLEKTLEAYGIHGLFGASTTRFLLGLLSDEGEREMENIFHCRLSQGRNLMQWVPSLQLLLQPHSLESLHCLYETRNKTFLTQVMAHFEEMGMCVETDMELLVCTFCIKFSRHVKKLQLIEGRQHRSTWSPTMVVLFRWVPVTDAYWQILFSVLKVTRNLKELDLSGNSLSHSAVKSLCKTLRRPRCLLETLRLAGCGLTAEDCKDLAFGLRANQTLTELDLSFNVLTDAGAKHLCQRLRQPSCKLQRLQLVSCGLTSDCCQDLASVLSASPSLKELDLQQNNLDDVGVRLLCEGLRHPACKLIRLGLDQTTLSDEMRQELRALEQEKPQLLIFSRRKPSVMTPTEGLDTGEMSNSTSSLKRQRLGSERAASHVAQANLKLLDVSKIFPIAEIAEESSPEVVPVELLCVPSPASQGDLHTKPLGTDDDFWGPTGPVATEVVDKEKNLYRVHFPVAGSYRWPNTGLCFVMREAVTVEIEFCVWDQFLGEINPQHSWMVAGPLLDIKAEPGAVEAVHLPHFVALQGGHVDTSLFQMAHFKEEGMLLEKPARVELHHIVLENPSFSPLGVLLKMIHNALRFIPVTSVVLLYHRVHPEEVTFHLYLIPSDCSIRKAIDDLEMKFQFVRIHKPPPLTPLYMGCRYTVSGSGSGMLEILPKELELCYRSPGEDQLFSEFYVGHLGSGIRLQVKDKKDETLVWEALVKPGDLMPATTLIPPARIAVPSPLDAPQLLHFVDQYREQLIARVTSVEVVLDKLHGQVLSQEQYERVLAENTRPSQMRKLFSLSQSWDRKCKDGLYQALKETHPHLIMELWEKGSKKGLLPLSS
Test: Ni flashplate dATPα35S binding assay, NBS mutant His6-NALP1
Details: 8 nM dATPα35S displaced by non-radiolabeled dATP
Method: Production of purified NALP-Flashplate binding assay. NALP1 protein for in vitro binding assays was purified from transiently transfected cells. COS-7 cells were plated in DMEM, 10% fetal calf serum with amino acid supplements and antibiotics and allowed to grow to approximately 50% confluency. Large-scale preparations were performed in Cell Factories (NUNC) with approximately 600 μg plasmid DNA. Polyfect transfection reagent (Qiagen) was used as described by the manufacturer. After 24 hours, cells were collected by trypsinization, washed with fresh medium and then with PBS. Cells were lysed by resuspension in 10× cell volume of lysis buffer (140 mM NaCl, 0.1% Triton-X100, 0.1 mM DTT, 20 mM HEPES at pH 7.4 and protease inhibitor cocktail (Roche Diagnostics BmbH)). Lysates were centrifuged at approximately 7400×g for 30 minutes and supernatants were supplemented with glycerol to a final concentration of 10% and stored at −70° C. until purification. Protein concentrations were measured and samples normalized. Extracts were mixed with 1 ml Ni-NTA agarose equilibrated with the same buffer for 1 hour at 4° C. in the tube. Disposable columns were filled with the resin and flow-through collected. […] Reactions were stopped by aspirating solutions and washed once with Buffer B. Plates were counted in a Top Count scintillation counter (Packard).

specific binding of dATP to NBS mutant NALP1: failed to achieve significant binding
Structure (SMILES): Nc1ncnc2c1ncn2[C@H]1C[C@H](O)[C@@H](COP(=O)(O)OP(=O)(O)OP(=O)(O)O)O1 [dATP]
